Consider 22 molecules from publication PMC8621456, “New Investigations with Lupane Type A-Ring Azepane Triterpenoids for Antimycobacterial Drug Candidate Design” (International Journal of Molecular Sciences, 2021).

Assay [1] deals with M. tuberculosis strain H37Rv. The assay is classed as cell-based, Mycobacterium tuberculosis. The following applies: 2× the MIC.
For assay [2], the system named is H37Rv (rpoB^S450L). The following applies: cited from earlier work.
In assay [3] the test system is H37Rv (gyrA^D94K). The following applies: cited from earlier work.
Assay [4] deals with H37Rv (katG^del). The experiment in a line: microbe, parasite or virus in culture. It is filed as cell-based. The following applies: Mycobacterium tuberculosis, isoniazid mono-resistant strain.
For assay [5], the system named is H37Rv (rpoB^S450L). It is filed as cell-based, Mycobacterium tuberculosis.
For assay [6], the system named is H37Rv (gyrA^D94K). It is filed as cell-based, Mycobacterium tuberculosis.

Each structure is given as a SMILES string. Converted amounts (≈) assume the structure as drawn. Where two headings read alike, the source gives them in different places. Marks after values point to notes of the source that are not given here.

On to `C=C(C)[C@@H]1CC[C@]2(CO)CC[C@]3(C)[C@H](CC[C@@H]4[C@@]5(C)CCCNC(C)(C)[C@@H]5CC[C@]43C)[C@@H]12` [Compound 1, azepanobetulin], for which the “FoR (order of magnitude stated in text)” value in assay [1] was 10^−6. For the same molecule, the “MIC (µM) H37Rv (rpoB^S450L)” value in assay [2] is reported as 4 * µM. In addition, the “MIC (µM) H37Rv (gyrA^D94K)” value in assay [3] is reported as 4 * µM.

`C=C(C)[C@@H]1CC[C@]2(C)CC[C@]3(C)[C@H](CC[C@@H]4[C@@]5(C)CCCNC(C)(C)[C@@H]5CC[C@]43C)[C@@H]12` [Compound 2, azepano-lupeol] showed an MIC in assay [4] of 4 µM (≈ 1.7 µg/mL). In addition, in assay [5], the “MIC (µM) H37Rv (rpoB^S450L)” value was found to be 4 µM (≈ 1.7 µg/mL). For the same molecule, the “MIC (µM) H37Rv (gyrA^D94K)” value in assay [6] was found to be 4 µM (≈ 1.7 µg/mL).

Take `C=C(C)[C@@H]1CC[C@]2(CN)CC[C@]3(C)[C@H](CC[C@@H]4[C@@]5(C)CCCNC(C)(C)[C@@H]5CC[C@]43C)[C@@H]12` [Compound 3]: the MIC in assay [4] amounted to 4 µM (≈ 1.76 µg/mL). Besides, in assay [5], the “MIC (µM) H37Rv (rpoB^S450L)” value is on record as 4 µM (≈ 1.76 µg/mL). For the same molecule, the “MIC (µM) H37Rv (gyrA^D94K)” value in assay [6] was 8 µM (≈ 3.53 µg/mL).

Molecule `C=C(C)[C@@H]1CC[C@]2(COC(=O)c3ccccc3C(=O)O)CC[C@]3(C)[C@H](CC[C@@H]4[C@@]5(C)CCCNC(C)(C)[C@@H]5CC[C@]43C)[C@@H]12` [Compound 4] registered an MIC in assay [4] of 8 µM (≈ 4.72 µg/mL). In addition, in assay [5], the “MIC (µM) H37Rv (rpoB^S450L)” value worked out at 8 µM (≈ 4.72 µg/mL). In addition, the “MIC (µM) H37Rv (gyrA^D94K)” value in assay [6] amounted to 16 µM (≈ 9.44 µg/mL).

Molecule `C=C(C)[C@@H]1CC[C@]2(COC(=O)c3cccnc3)CC[C@]3(C)[C@H](CC[C@@H]4[C@@]5(C)CCCNC(C)(C)[C@@H]5CC[C@]43C)[C@@H]12` [Compound 5] displayed an MIC in assay [4] of 4 µM (≈ 2.19 µg/mL). Moreover, in assay [5], the “MIC (µM) H37Rv (rpoB^S450L)” value is listed as 8 µM (≈ 4.37 µg/mL). The “MIC (µM) H37Rv (gyrA^D94K)” value in assay [6] was 8 µM (≈ 4.37 µg/mL).

`C=C(C)[C@@H]1CC[C@]2(COS(=O)(=O)c3ccc(C)cc3)CC[C@]3(C)[C@H](CC[C@@H]4[C@@]5(C)CCCNC(C)(C)[C@@H]5CC[C@]43C)[C@@H]12` [Compound 6] displayed an MIC in assay [4] of 4 µM (≈ 2.38 µg/mL). Moreover, in assay [5], the “MIC (µM) H37Rv (rpoB^S450L)” value is 4 µM (≈ 2.38 µg/mL). In addition, the “MIC (µM) H37Rv (gyrA^D94K)” value in assay [6] was 4 µM (≈ 2.38 µg/mL).

With `C=C(C)[C@@H]1CC[C@]2(C=NNC(=O)c3ccncc3)CC[C@]3(C)[C@H](CC[C@@H]4[C@@]5(C)CCCNC(C)(C)[C@@H]5CC[C@]43C)[C@@H]12` [Compound 7], the MIC in assay [4] is 8 µM (≈ 4.47 µg/mL). Besides, the “MIC (µM) H37Rv (rpoB^S450L)” value in assay [5] is given as 0.5 µM (≈ 0.279 µg/mL). Besides, in assay [6], the “MIC (µM) H37Rv (gyrA^D94K)” value is 0.5 µM (≈ 0.279 µg/mL).

The molecule `C=C(C)[C@@H]1CC[C@]2(C(=O)NC(CO)Cc3ccccc3)CC[C@]3(C)[C@H](CC[C@@H]4[C@@]5(C)CCCNC(C)(C)[C@@H]5CC[C@]43C)[C@@H]12` (some centres unmarked) [Compound 8] displayed an MIC in assay [4] of 4 µM (≈ 2.36 µg/mL). In addition, the “MIC (µM) H37Rv (rpoB^S450L)” value in assay [5] came out at 4 µM (≈ 2.36 µg/mL). The “MIC (µM) H37Rv (gyrA^D94K)” value in assay [6] was determined as 4 µM (≈ 2.36 µg/mL).

The molecule `C=C(C)[C@@H]1CC[C@]2(C(=O)N3CCN(C)CC3)CC[C@]3(C)[C@H](CC[C@@H]4[C@@]5(C)CCCNC(C)(C)[C@@H]5CC[C@]43C)[C@@H]12` [Compound 9] came in with an MIC in assay [4] of 1 µM (≈ 0.538 µg/mL). In addition, in assay [5], the “MIC (µM) H37Rv (rpoB^S450L)” value is on record as 2 µM (≈ 1.08 µg/mL). The “MIC (µM) H37Rv (gyrA^D94K)” value in assay [6] is reported as 2 µM (≈ 1.08 µg/mL).

Consider `C=C(C)[C@@H]1CC[C@]2(C(=O)NC3CCCCC3)CC[C@]3(C)[C@H](CC[C@@H]4[C@@]5(C)CCCNC(C)(C)[C@@H]5CC[C@]43C)[C@@H]12` [Compound 10], for which the MIC in assay [4] is 4 µM (≈ 2.15 µg/mL). Besides, the “MIC (µM) H37Rv (rpoB^S450L)” value in assay [5] came to 4 µM (≈ 2.15 µg/mL). In assay [6], the “MIC (µM) H37Rv (gyrA^D94K)” value stood at 4 µM (≈ 2.15 µg/mL).

Turning to `C=C(C)[C@@H]1CC[C@]2(COC(C)=O)CC[C@]3(C)[C@H](CC[C@@H]4[C@@]5(C)CCCN(C(C)=O)C(C)(C)[C@@H]5CC[C@]43C)[C@@H]12` [Compound 11], the “MIC (µM) H37Rv (rpoB^S450L)” value in assay [5] was determined as 4 µM (≈ 2.1 µg/mL). The “MIC (µM) H37Rv (gyrA^D94K)” value in assay [6] is recorded as 8 µM (≈ 4.21 µg/mL).

`C=C(C)[C@@H]1CC[C@]2(COC(C)=O)CC[C@]3(C)[C@H](CC[C@@H]4[C@@]5(C)CCCN(C(=O)c6cccnc6)C(C)(C)[C@@H]5CC[C@]43C)[C@@H]12` [Compound 12]: the “MIC (µM) H37Rv (rpoB^S450L)” value in assay [5] was 32 µM (≈ 18.8 µg/mL). Moreover, the “MIC (µM) H37Rv (gyrA^D94K)” value in assay [6] is listed as above 32 µM.

On to `CC(=O)[C@@H]1CC[C@]2(COS(=O)(=O)c3ccc(C)cc3)CC[C@]3(C)[C@H](CC[C@@H]4[C@@]5(C)CCCNC(C)(C)[C@@H]5CC[C@]43C)[C@@H]12` [Compound 13], for which the MIC in assay [4] worked out at 8 µM (≈ 4.78 µg/mL). Also, in assay [5], the “MIC (µM) H37Rv (rpoB^S450L)” value stood at 8 µM (≈ 4.78 µg/mL). Moreover, the “MIC (µM) H37Rv (gyrA^D94K)” value in assay [6] is 16 µM (≈ 9.57 µg/mL).

Consider `C=C(CBr)[C@@H]1CC[C@]2(COC(C)=O)CC[C@]3(C)[C@H](CC[C@@H]4[C@@]5(C)CCCNC(C)(C)[C@@H]5CC[C@]43C)[C@@H]12` [Compound 14], for which the MIC in assay [4] was 16 µM (≈ 9 µg/mL). For the same molecule, the “MIC (µM) H37Rv (rpoB^S450L)” value in assay [5] was above 32 µM. Further, in assay [6], the “MIC (µM) H37Rv (gyrA^D94K)” value is given as above 32 µM.

On to `C=C(CN=[N+]=[N-])[C@@H]1CC[C@]2(COC(C)=O)CC[C@]3(C)[C@H](CC[C@@H]4[C@@]5(C)CCCNC(C)(C)[C@@H]5CC[C@]43C)[C@@H]12` [Compound 15], for which the MIC in assay [4] was 32 µM (≈ 16.8 µg/mL). The “MIC (µM) H37Rv (rpoB^S450L)” value in assay [5] was above 32 µM. In addition, the “MIC (µM) H37Rv (gyrA^D94K)” value in assay [6] was above 32 µM.

Turning to `CC1(C)CCC23CCC4(C)C(CCC5C6(C)CCCNC(C)(C)C6CCC54C)C2C1OC3` (centres unmarked) [Compound 17], the MIC in assay [4] came to 8 µM (≈ 3.53 µg/mL). For the same molecule, the “MIC (µM) H37Rv (rpoB^S450L)” value in assay [5] is listed as 8 µM (≈ 3.53 µg/mL). Also, in assay [6], the “MIC (µM) H37Rv (gyrA^D94K)” value was 16 µM (≈ 7.07 µg/mL).

Consider `CC(C)=C1CCC=C2CC[C@]3(C)[C@H](CC[C@@H]4[C@@]5(C)CCCNC(C)(C)[C@@H]5CC[C@]43C)[C@H]21` [Compound 18], for which the “FoR (order of magnitude stated in text)” value in assay [1] is given as 10^−6. For the same molecule, the “MIC (µM) H37Rv (rpoB^S450L)” value in assay [5] is 16 µM (≈ 6.78 µg/mL). In assay [6], the “MIC (µM) H37Rv (gyrA^D94K)” value turned out to be 8 µM (≈ 3.39 µg/mL).

In assay [4], `C#CCNC(=O)[C@]12CC[C@@H](C(=C)C)[C@@H]1[C@H]1CC[C@@H]3[C@@]4(C)CCCNC(C)(C)[C@@H]4CC[C@@]3(C)[C@]1(C)CC2` [Compound 20, 17-(Propargyl)-3-deoxo-3a-homo-3a-aza-lup-20(29)-en-carboxamide] showed an MIC of 4 µM (≈ 1.97 µg/mL). Besides, the “MIC (µM) H37Rv (rpoB^S450L)” value in assay [5] stood at 8 µM (≈ 3.94 µg/mL). Also, the “MIC (µM) H37Rv (gyrA^D94K)” value in assay [6] is given as 4 µM (≈ 1.97 µg/mL).

`NNC(=O)c1ccncc1` [Isoniazid, reference compound] registered an MIC in assay [4] above 2 µM. In assay [1], the “FoR (order of magnitude stated in text)” value is listed as 10^−4. For the same molecule, in assay [5], the “MIC (µM) H37Rv (rpoB^S450L)” value is recorded as 0.06 µM (≈ 0.00823 µg/mL). Also, the “MIC (µM) H37Rv (gyrA^D94K)” value in assay [6] is recorded as 0.06 µM (≈ 0.00823 µg/mL).

`COc1c(N2C[C@@H]3CCCN[C@@H]3C2)c(F)cc2c(=O)c(C(=O)O)cn(C3CC3)c12` [Moxifloxacin, reference compound] yielded an MIC in assay [4] of 0.03 µM (≈ 0.012 µg/mL). For the same molecule, in assay [5], the “MIC (µM) H37Rv (rpoB^S450L)” value worked out at 0.03 µM (≈ 0.012 µg/mL). In assay [6], the “MIC (µM) H37Rv (gyrA^D94K)” value is above 2 µM.

For `O=[N+]([O-])c1cn2c(n1)OC[C@@H](OCc1ccc(OC(F)(F)F)cc1)C2` [Pretomanid, reference compound], the MIC in assay [4] came out at 0.06 µM (≈ 0.0216 µg/mL). The “MIC (µM) H37Rv (rpoB^S450L)” value in assay [5] stood at 0.06 µM (≈ 0.0216 µg/mL). Besides, the “MIC (µM) H37Rv (gyrA^D94K)” value in assay [6] was determined as 0.125 µM (≈ 0.0449 µg/mL).

`CO[C@H]1/C=C/O[C@@]2(C)Oc3c(C)c(O)c4c(O)c(c(/C=N/N5CCN(C)CC5)c(O)c4c3C2=O)NC(=O)/C(C)=C\C=C\[C@H](C)[C@H](O)[C@@H](C)[C@@H](O)[C@@H](C)[C@H](OC(C)=O)[C@@H]1C` [Rifampin, reference compound]: the MIC in assay [4] is at most 0.004 µM. The “MIC (µM) H37Rv (rpoB^S450L)” value in assay [5] is reported as above 1 µM. Moreover, the “MIC (µM) H37Rv (gyrA^D94K)” value in assay [6] is on record as at most 0.004 µM.
